The values that follow come from patent US8653134B2, “Hydroxyphenol derivatives, processes for the preparation thereof, pharmaceutical compositions them, and therapeutic uses thereof” (Merck Patent GmbH, priority 2005, dated 2014).

The target of data set [1] is T1, chimeric protein PPARγ-Gal4 (Homo sapiens, UniProt P37231).
T1 construct: expressed in transfected cells; host or cells: CV-1 cells (monkey kidney cells)
T1 sequence (P37231 238-503 limits assumed): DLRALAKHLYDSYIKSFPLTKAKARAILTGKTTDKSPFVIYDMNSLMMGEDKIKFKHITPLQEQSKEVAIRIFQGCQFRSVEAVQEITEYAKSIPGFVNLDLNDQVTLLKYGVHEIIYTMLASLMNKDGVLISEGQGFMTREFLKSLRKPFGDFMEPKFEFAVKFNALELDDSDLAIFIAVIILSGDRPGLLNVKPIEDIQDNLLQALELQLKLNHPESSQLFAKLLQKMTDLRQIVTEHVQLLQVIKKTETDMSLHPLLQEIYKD
The data set can be described thus: PPARγ-Gal4 transactivation test (luciferase reporter) in cotransfected CV-1 cells. Type of data set: cell-based. Here is the method: The measurement of the PPAR activation was performed according to a technique described by Lehmann et al. (J. Biol. Chem., 270, (1995), 12953-12956). CV-1 cells (monkey kidney cells) are cotransfected with an expression vector for the chimeric protein PPARγ-Gal4 and with a “reporter” plasmid that allows expression of the luciferase gene placed under the control of a promoter comprising Gal4 response elements. The cells are seeded in 96-well microplates and cotransfected using a commercial reagent with the reporter plasmid (pG5-tk-pGL3) and the expression vector for the chimeric protein (PPARγ-Gal4). After incubation for 4 hours, whole culture medium (comprising 10% foetal calf serum) is added to the wells. After 24 hours, the medium is removed and replaced with whole medium comprising the test products. The products are left in contact with the cells for 18 hours. The cells are then lysed and the luciferase activity is measured using a luminometer. A PPARγ activation factor can then be calculated by means of the activation of the expression of the reporter gene induced by the product (relative to the control cells that have received no product). In the absence of the PPARγ ligand binding domain (vector expressing Gal4 alone), the luciferase activity measured in the presence of an agonist is zero. The transactivation test using the expression of a chimeric protein Gal-4-PPARγ makes it possible to determine also whether an agonist functions as a “full” agonist or as a “partial” agonist in this system. An agonist is “partial” in this system if it induces a weaker response, i.e. it has lower efficacy, than rosiglitazone, which is a “full” agonist. In concrete terms, in our system, the transactivation obtained at the plateau with a partial agonist will be between 20% and 50% of the maximum response (efficacy) at the plateau of rosiglitazone.

On to `CCCCCCOc1cc2c(cc1OCCCC(=O)O)C(=O)CC2` [Example 7, 4-(6-hexyloxy-3-oxoindan-5-yloxy)butanoic acid], for which the “Activation factor of the chimeric protein PPARγ-Gal4” value in data set [1] (concentration 10 μM, CV-1 cells (monkey kidney cells), 18 hours contact, relative to control cells without agonist (=1)) was 9.10.

As for `CCCCCOc1cc2c(cc1OCc1cccc(C(=O)O)c1)C(=O)CC2` [Example 4, 3-(3-Oxo-6-pentyloxyindan-5-yloxymethyl)benzoic Acid], the melting point (usually the temperature of the solid-liquid transition) was found to be 190 °C. Further, the “Concentration to reach the maximum stimulation of the PPARγ chimeric protein” value in data set [1] (CV-1 cells, Gal-4-PPARγ transactivation) is 12.5 µM. In addition, the Emax in data set [1] (transactivation at the plateau as % of the maximum response (efficacy) of rosiglitazone, CV-1 cells, read-out: Maximum stimulation of the PPARγ chimeric protein obtained with rosiglitazone) is 28%.
